Test results published in the supplement of paper PMC13207355.

How the values were obtained:
Conditions in all cases: exposure time: 72 h
E13 [1] = patient-derived glioblastoma stem cells of classical subtype; experiment: surviving fraction (nuclei count normalised to DMSO); higher = more cells surviving (less toxic)
E21 [2] = patient-derived glioblastoma stem cells of mesenchymal subtype; experiment: as above
E28 [3] = patient-derived glioblastoma stem cells of classical subtype; experiment: as above
E31 [4] = patient-derived glioblastoma stem cells of proneural subtype; experiment: as above
E34 [5] = patient-derived glioblastoma stem cells of proneural subtype; experiment: as above
E57 [6] = patient-derived glioblastoma stem cells of mesenchymal subtype; experiment: as above
FT3469 [7] = normal neural stem cell line; experiment: as above
E13 [8] = experiment: phenotypic distance (Euclidean, principal components) from DMSO controls (arbitrary units); higher = stronger morphological change
E21 [9] = experiment: as above
E28 [10] = experiment: as above
E31 [11] = experiment: as above
E34 [12] = experiment: as above
E57 [13] = experiment: as above
FT3469 [14] = experiment: as above
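Throughout, for phenotypic distance (Euclidean, principal components) from DMSO controls: cell Painting imaging in 384-well plates, CellProfiler features reduced to at least 20 principal components, Euclidean distance versus same-plate DMSO vehicle wells (0.1% v/v), median over six images per well.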
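Throughout, for surviving fraction (nuclei count normalised to DMSO): nuclei counted by high-content imaging of Hoechst-stained cells in laminin-coated 384-well plates, relative to 0.1% DMSO vehicle wells, with staurosporine as cell-death control.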

Cc1[nH]nc(C(F)(F)F)c1Cc1sc2c(c1C(=O)N1C[C@](C)(O)CO1)c(=O)n(C)c(=O)n2C(C)C [AZD3965]
Conditions	phenotypic distance	surviving fraction
E13 [1], 4.1 nM	–	0.892
E13 [1], 4.11523 nM	–	0.874
E13 [1], 12.3 nM	–	0.878
E13 [1], 12.34567901 nM	–	0.853
E13 [1], 37 nM	–	0.902
E13 [1], 37.037 nM	–	0.888
E13 [1], 111.1 nM	–	0.875
E13 [1], 111.1111111 nM	–	0.852
E13 [1], 333.3 nM	–	0.798
E13 [1], 333.333 nM	–	0.795
E13 [1], 1000 nM	–	0.8872
E13 [1], 3000 nM	–	0.893
E13 [8], 4.1 nM	2.38	–
E13 [8], 4.11523 nM	3.36	–
E13 [8], 12.3 nM	1.38	–
E13 [8], 12.34567901 nM	1.25	–
E13 [8], 37 nM	1.12	–
E13 [8], 37.037 nM	1.28	–
E13 [8], 111.1 nM	1.14	–
E13 [8], 111.1111111 nM	1.42	–
E13 [8], 333.3 nM	1.61	–
E13 [8], 333.333 nM	1.44	–
E13 [8], 1000 nM	1.42	–
E13 [8], 3000 nM	1.49	–
E21 [2], 4.1 nM	–	0.918
E21 [2], 4.11523 nM	–	0.909
E21 [2], 12.3 nM	–	0.974
E21 [2], 12.34567901 nM	–	0.942
E21 [2], 37 nM	–	1.01
E21 [2], 37.037 nM	–	0.985
E21 [2], 111.1 nM	–	0.876
E21 [2], 111.1111111 nM	–	0.994
E21 [2], 333.3 nM	–	0.97
E21 [2], 333.333 nM	–	0.874
E21 [2], 1000 nM	–	0.975
E21 [2], 3000 nM	–	1.03
E21 [9], 4.1 nM	0.524	–
E21 [9], 4.11523 nM	0.56	–
E21 [9], 12.3 nM	0.38	–
E21 [9], 12.34567901 nM	0.473	–
E21 [9], 37 nM	0.579	–
E21 [9], 37.037 nM	0.608	–
E21 [9], 111.1 nM	3	–
E21 [9], 111.1111111 nM	0.601	–
E21 [9], 333.3 nM	0.814	–
E21 [9], 333.333 nM	0.596	–
E21 [9], 1000 nM	0.438	–
E21 [9], 3000 nM	0.509	–
E28 [3], 4.1 nM	–	0.719
E28 [3], 4.11523 nM	–	0.606
E28 [3], 12.3 nM	–	0.623
E28 [3], 12.34567901 nM	–	0.725
E28 [3], 37 nM	–	0.66
E28 [3], 37.037 nM	–	0.664
E28 [3], 111.1 nM	–	0.585
E28 [3], 111.1111111 nM	–	0.599
E28 [3], 333.3 nM	–	0.695
E28 [3], 333.333 nM	–	0.602
E28 [3], 1000 nM	–	0.645
E28 [3], 3000 nM	–	0.609
E28 [10], 4.1 nM	1.93	–
E28 [10], 4.11523 nM	2.44	–
E28 [10], 12.3 nM	2.03	–
E28 [10], 12.34567901 nM	2.3	–
E28 [10], 37 nM	2.12	–
E28 [10], 37.037 nM	2.05	–
E28 [10], 111.1 nM	2.52	–
E28 [10], 111.1111111 nM	2.75	–
E28 [10], 333.3 nM	2.16	–
E28 [10], 333.333 nM	1.86	–
E28 [10], 1000 nM	3.17	–
E28 [10], 3000 nM	2.52	–
E31 [4], 4.1 nM	–	1.02
E31 [4], 4.11523 nM	–	0.885
E31 [4], 12.3 nM	–	1.01
E31 [4], 12.34567901 nM	–	1.03
E31 [4], 37 nM	–	1.11
E31 [4], 37.037 nM	–	0.935
E31 [4], 111.1 nM	–	1.02
E31 [4], 111.1111111 nM	–	1.26
E31 [4], 333.3 nM	–	1.08
E31 [4], 333.333 nM	–	0.948
E31 [4], 1000 nM	–	1.06
E31 [4], 3000 nM	–	0.9527
E31 [11], 4.1 nM	1.24	–
E31 [11], 4.11523 nM	1.57	–
E31 [11], 12.3 nM	1.17	–
E31 [11], 12.34567901 nM	1.51	–
E31 [11], 37 nM	1.23	–
E31 [11], 37.037 nM	1.3	–
E31 [11], 111.1 nM	1.12	–
E31 [11], 111.1111111 nM	1.4	–
E31 [11], 333.3 nM	1.58	–
E31 [11], 333.333 nM	1.36	–
E31 [11], 1000 nM	1.41	–
E31 [11], 3000 nM	1.36	–
E34 [5], 4.1 nM	–	0.782
E34 [5], 4.11523 nM	–	0.704
E34 [5], 12.3 nM	–	0.677
E34 [5], 12.34567901 nM	–	0.748
E34 [5], 37 nM	–	0.775
E34 [5], 37.037 nM	–	0.724
E34 [5], 111.1 nM	–	0.71
E34 [5], 111.1111111 nM	–	0.849
E34 [5], 333.3 nM	–	0.713
E34 [5], 333.333 nM	–	0.686
E34 [5], 1000 nM	–	0.7
E34 [5], 3000 nM	–	0.718
E34 [12], 4.1 nM	1.15	–
E34 [12], 4.11523 nM	1.69	–
E34 [12], 12.3 nM	1.33	–
E34 [12], 12.34567901 nM	1.5	–
E34 [12], 37 nM	1.42	–
E34 [12], 37.037 nM	1.59	–
E34 [12], 111.1 nM	1.57	–
E34 [12], 111.1111111 nM	1.79	–
E34 [12], 333.3 nM	1.47	–
E34 [12], 333.333 nM	1.47	–
E34 [12], 1000 nM	1.21	–
E34 [12], 3000 nM	1.35	–
E57 [6], 4.1 nM	–	0.905
E57 [6], 4.11523 nM	–	0.97
E57 [6], 12.3 nM	–	0.959
E57 [6], 12.34567901 nM	–	0.899
E57 [6], 37 nM	–	0.94
E57 [6], 37.037 nM	–	0.871
E57 [6], 111.1 nM	–	0.932
E57 [6], 111.1111111 nM	–	0.96
E57 [6], 333.3 nM	–	0.917
E57 [6], 333.333 nM	–	0.898
E57 [6], 1000 nM	–	0.922
E57 [6], 3000 nM	–	0.917
E57 [13], 4.1 nM	1.39	–
E57 [13], 4.11523 nM	1.81	–
E57 [13], 12.3 nM	1.46	–
E57 [13], 12.34567901 nM	1.78	–
E57 [13], 37 nM	1.94	–
E57 [13], 37.037 nM	2.19	–
E57 [13], 111.1 nM	1.74	–
E57 [13], 111.1111111 nM	1.87	–
E57 [13], 333.3 nM	1.65	–
E57 [13], 333.333 nM	1.79	–
E57 [13], 1000 nM	1.74	–
E57 [13], 3000 nM	1.93	–
FT3469 [7], 4.1 nM	–	0.911
FT3469 [7], 4.11523 nM	–	0.788
FT3469 [7], 12.3 nM	–	0.929
FT3469 [7], 12.34567901 nM	–	0.932
FT3469 [7], 37 nM	–	0.838
FT3469 [7], 37.037 nM	–	0.903
FT3469 [7], 111.1 nM	–	0.873
FT3469 [7], 111.1111111 nM	–	1.07
FT3469 [7], 333.3 nM	–	1.05
FT3469 [7], 333.333 nM	–	0.841
FT3469 [7], 1000 nM	–	0.948
FT3469 [7], 3000 nM	–	0.899
FT3469 [14], 4.1 nM	2.64	–
FT3469 [14], 4.11523 nM	1.35	–
FT3469 [14], 12.3 nM	0.859	–
FT3469 [14], 12.34567901 nM	1.19	–
FT3469 [14], 37 nM	0.806	–
FT3469 [14], 37.037 nM	1.13	–
FT3469 [14], 111.1 nM	0.75	–
FT3469 [14], 111.1111111 nM	1.11	–
FT3469 [14], 333.3 nM	1.33	–
FT3469 [14], 333.333 nM	1.16	–
FT3469 [14], 1000 nM	0.712	–
FT3469 [14], 3000 nM	0.976	–
